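Growth conditions: 96-well plates. Treatment: test compound, 48 hours, 5 concentrations. Analysis: linear interpolation between bracketing concentrations; unreached endpoints set to highest concentration. The concentration for 50% growth inhibition is given as GI50.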 Active and inactive are the calls of the source. Rule as the data show it: active = GI50 up to about 1.1 µM and inactive = higher.
Assays:
Test in all cases: NCI-60 cell line screen, 48 h
RPMI-8226 = system: RPMI-8226
HCT-15 = system: HCT-15
KM12 = system: KM12
MOLT-4 = system: MOLT-4
XF498 = system: XF498
A549 = system: A549
DLD-1 = system: DLD-1
K562 = system: K562
SNB-19 = system: SNB-19
HOP-92 = system: HOP-92
UACC-62 = system: UACC-62
HOP-18 = system: HOP-18
SF-268 = system: SF-268
CAKI-1 = system: CAKI-1
HCC 2998 = system: HCC 2998
SW-620 = system: SW-620
NCI-H23 = system: NCI-H23
TK-10 = system: TK-10
HL-60 = system: HL-60
NCI-H522 = system: NCI-H522
DMS-114 = system: DMS-114
SK-OV-3 = system: SK-OV-3
HT-29 = system: HT-29
COLO 205 = system: COLO 205
LXFL 529 = system: LXFL 529
Malme-3M = system: Malme-3M
RXF 631 = system: RXF 631
M14 = system: M14
SNB-78 = system: SNB-78
KM-20L2 = system: KM-20L2
OVCAR-3 = system: OVCAR-3
SK-MEL-2 = system: SK-MEL-2
HOP-62 = system: HOP-62
M19-MEL = system: M19-MEL
SNB-75 = system: SNB-75
CCRF-CEM = system: CCRF-CEM
EKVX = system: EKVX
ACHN = system: ACHN
SN12C = system: SN12C
NCI-H226 = system: NCI-H226
SR = system: SR
OVCAR-4 = system: OVCAR-4
UACC-257 = system: UACC-257
SF-295 = system: SF-295
OVCAR-8 = system: OVCAR-8
OVCAR-5 = system: OVCAR-5
786-0 = system: 786-0
NCI-H460 = system: NCI-H460
UO-31 = system: UO-31
LOX IMVI = system: LOX IMVI
SF-539 = system: SF-539
A498 = system: A498
IGROV-1 = system: IGROV-1
SK-MEL-5 = system: SK-MEL-5
U-251 = system: U-251
HCT-116 = system: HCT-116
SK-MEL-28 = system: SK-MEL-28
DMS-273 = system: DMS-273
RXF 393 = system: RXF 393

CCCCCCCC/C=C1\CCC(CN(C)C)C1=O (centres undefined) was tested, and the GI50 (RPMI-8226) was 0.211 µM (active), the GI50 (HCT-15) was 2.77 µM and the GI50 (KM12) was 2.31 µM (inactive). For the same compound, the GI50 (MOLT-4) was 2.68 µM (inactive), the GI50 (XF498) was 6.22 µM (inactive) and the GI50 (A549) was 19.3 µM (inactive). The GI50 (DLD-1) was 2.16 µM (inactive), the GI50 (K562) was 2.51 µM (inactive) and the GI50 (SNB-19) was 16.7 µM (inactive). The GI50 (HOP-92) was 3.33 µM (inactive), the GI50 (UACC-62) was 7.41 µM (inactive) and the GI50 (HOP-18) was 19.5 µM (inactive). For the same compound, the GI50 (SF-268) was 7.29 µM (inactive), the GI50 (CAKI-1) was 3.1 µM (inactive) and the GI50 (HCC 2998) was 9.57 µM (inactive). For the same compound, the GI50 (SW-620) was 3.33 µM (inactive), the GI50 (NCI-H23) was 10.7 µM (inactive) and the GI50 (TK-10) was 2.54 µM (inactive). The GI50 (HL-60) was 5.05 µM (inactive), the GI50 (NCI-H522) was 3.54 µM (inactive) and the GI50 (DMS-114) was 4.01 µM (inactive). The GI50 (SK-OV-3) was 17.2 µM (inactive), the GI50 (HT-29) was 4.35 µM (inactive) and the GI50 (COLO 205) was 4.16 µM (inactive). For the same compound, the GI50 (LXFL 529) was 1.61 µM (inactive), the GI50 (Malme-3M) was 3.18 µM (inactive) and the GI50 (RXF 631) was 5.64 µM (inactive). For the same compound, the GI50 (M14) was 4.88 µM (inactive), the GI50 (SNB-78) was 7.45 µM (inactive) and the GI50 (KM-20L2) was 7.6 µM (inactive). The GI50 (OVCAR-3) was 7.18 µM (inactive), the GI50 (SK-MEL-2) was 12 µM (inactive) and the GI50 (HOP-62) was 12.2 µM (inactive). For the same compound, the GI50 (M19-MEL) was 3.36 µM (inactive), the GI50 (SNB-75) was 5.25 µM (inactive) and the GI50 (CCRF-CEM) was 1.54 µM (inactive). The GI50 (EKVX) was 9.06 µM (inactive), the GI50 (ACHN) was 6.61 µM (inactive) and the GI50 (SN12C) was 4.02 µM (inactive). For the same compound, the GI50 (NCI-H226) was 22.3 µM (inactive), the GI50 (SR) was 3.15 µM (inactive) and the GI50 (OVCAR-4) was 13.7 µM (inactive). For the same compound, the GI50 (UACC-257) was 5.89 µM (inactive), the GI50 (SF-295) was 6.5 µM (inactive) and the GI50 (OVCAR-8) was 3.23 µM (inactive). The GI50 (OVCAR-5) was 20.2 µM (inactive), the GI50 (786-0) was 1.53 µM (inactive) and the GI50 (NCI-H460) was 10.7 µM (inactive). The GI50 (UO-31) was 11 µM (inactive), the GI50 (LOX IMVI) was 1.92 µM (inactive) and the GI50 (SF-539) was 4.82 µM (inactive). The GI50 (A498) was 16.5 µM (inactive), the GI50 (IGROV-1) was 8.17 µM (inactive) and the GI50 (SK-MEL-5) was 8.45 µM (inactive). For the same compound, the GI50 (U-251) was 2.14 µM (inactive), the GI50 (HCT-116) was 2.96 µM (inactive) and the GI50 (SK-MEL-28) was 3.89 µM (inactive). The GI50 (DMS-273) was 2.43 µM (inactive).
With C[Si](C)(C)CC(N)=O the GI50 (RPMI-8226) was > 100 µM (inactive), the GI50 (HCT-15) was greater than 100 µM and the GI50 (KM12) was > 100 µM (inactive). The GI50 (MOLT-4) was > 100 µM (inactive), the GI50 (XF498) was > 100 µM (inactive) and the GI50 (A549) was > 100 µM (inactive). For the same compound, the GI50 (DLD-1) was > 100 µM (inactive), the GI50 (K562) was > 100 µM (inactive) and the GI50 (RXF 393) was > 100 µM (inactive). The GI50 (SNB-19) was > 100 µM (inactive), the GI50 (HOP-92) was > 100 µM (inactive) and the GI50 (UACC-62) was > 100 µM (inactive). The GI50 (HOP-18) was > 100 µM (inactive), the GI50 (CAKI-1) was > 100 µM (inactive) and the GI50 (HCC 2998) was > 100 µM (inactive). The GI50 (SW-620) was > 100 µM (inactive), the GI50 (TK-10) was > 100 µM (inactive) and the GI50 (HL-60) was > 100 µM (inactive). The GI50 (DMS-114) was > 100 µM (inactive), the GI50 (SK-OV-3) was > 100 µM (inactive) and the GI50 (HT-29) was > 100 µM (inactive). The GI50 (COLO 205) was > 100 µM (inactive), the GI50 (LXFL 529) was > 100 µM (inactive) and the GI50 (Malme-3M) was > 100 µM (inactive). The GI50 (RXF 631) was > 100 µM (inactive), the GI50 (M14) was > 100 µM (inactive) and the GI50 (SNB-78) was > 100 µM (inactive). For the same compound, the GI50 (KM-20L2) was > 100 µM (inactive), the GI50 (OVCAR-3) was > 100 µM (inactive) and the GI50 (SK-MEL-2) was > 100 µM (inactive). For the same compound, the GI50 (HOP-62) was > 100 µM (inactive), the GI50 (M19-MEL) was > 100 µM (inactive) and the GI50 (SNB-75) was > 100 µM (inactive). The GI50 (CCRF-CEM) was > 100 µM (inactive), the GI50 (EKVX) was > 100 µM (inactive) and the GI50 (ACHN) was > 100 µM (inactive). The GI50 (SN12C) was > 100 µM (inactive), the GI50 (NCI-H226) was > 100 µM (inactive) and the GI50 (OVCAR-4) was > 100 µM (inactive). For the same compound, the GI50 (UACC-257) was > 100 µM (inactive), the GI50 (SF-295) was > 100 µM (inactive) and the GI50 (OVCAR-8) was > 100 µM (inactive). For the same compound, the GI50 (OVCAR-5) was > 100 µM (inactive), the GI50 (786-0) was > 100 µM (inactive) and the GI50 (NCI-H460) was > 100 µM (inactive). For the same compound, the GI50 (UO-31) was > 100 µM (inactive), the GI50 (LOX IMVI) was > 100 µM (inactive) and the GI50 (IGROV-1) was > 100 µM (inactive). The GI50 (SK-MEL-5) was > 100 µM (inactive), the GI50 (U-251) was > 100 µM (inactive) and the GI50 (HCT-116) was > 100 µM (inactive). For the same compound, the GI50 (SK-MEL-28) was > 100 µM (inactive) and the GI50 (DMS-273) was > 100 µM (inactive).
COc1ccc(/C(Cl)=C(/c2ccc(O)cc2)c2ccc(OCCN(C)C)cc2)cc1 was tested, and the GI50 (RPMI-8226) was 5.96 µM (inactive), the GI50 (HCT-15) was 11.3 µM and the GI50 (KM12) was 9.14 µM (inactive). The GI50 (XF498) was 3.65 µM (inactive), the GI50 (A549) was 13.8 µM (inactive) and the GI50 (DLD-1) was 15.7 µM (inactive). The GI50 (RXF 393) was 5.12 µM (inactive), the GI50 (SNB-19) was 14.1 µM (inactive) and the GI50 (UACC-62) was 16.6 µM (inactive). The GI50 (HOP-18) was 12.5 µM (inactive), the GI50 (SF-268) was 11.8 µM (inactive) and the GI50 (CAKI-1) was 14.3 µM (inactive). For the same compound, the GI50 (HCC 2998) was 16.7 µM (inactive), the GI50 (SW-620) was 11.9 µM (inactive) and the GI50 (NCI-H23) was 15.6 µM (inactive). For the same compound, the GI50 (TK-10) was 19.7 µM (inactive), the GI50 (HL-60) was 10.2 µM (inactive) and the GI50 (NCI-H522) was 12.1 µM (inactive). For the same compound, the GI50 (DMS-114) was 7.18 µM (inactive), the GI50 (SK-OV-3) was 13.1 µM (inactive) and the GI50 (HT-29) was 2.13 µM (inactive). The GI50 (COLO 205) was 9.86 µM (inactive), the GI50 (LXFL 529) was 10.8 µM (inactive) and the GI50 (Malme-3M) was 4.62 µM (inactive). The GI50 (RXF 631) was 12.4 µM (inactive), the GI50 (M14) was 2.1 µM (inactive) and the GI50 (SNB-78) was 14.5 µM (inactive). For the same compound, the GI50 (KM-20L2) was 3.1 µM (inactive), the GI50 (OVCAR-3) was 15.3 µM (inactive) and the GI50 (SK-MEL-2) was 10.4 µM (inactive). For the same compound, the GI50 (HOP-62) was 13.6 µM (inactive), the GI50 (M19-MEL) was 3.72 µM (inactive) and the GI50 (SNB-75) was 11 µM (inactive). The GI50 (EKVX) was 16.6 µM (inactive), the GI50 (ACHN) was 14.6 µM (inactive) and the GI50 (SN12C) was 12.9 µM (inactive). The GI50 (NCI-H226) was 16.1 µM (inactive), the GI50 (SR) was 2.9 µM (inactive) and the GI50 (OVCAR-4) was 13.9 µM (inactive). The GI50 (UACC-257) was 2.9 µM (inactive), the GI50 (SF-295) was 4.78 µM (inactive) and the GI50 (OVCAR-8) was 15.5 µM (inactive). The GI50 (OVCAR-5) was 13.3 µM (inactive), the GI50 (786-0) was 6.03 µM (inactive) and the GI50 (NCI-H460) was 12.7 µM (inactive). For the same compound, the GI50 (UO-31) was 7.03 µM (inactive), the GI50 (LOX IMVI) was 2.96 µM (inactive) and the GI50 (SF-539) was 11.5 µM (inactive). For the same compound, the GI50 (IGROV-1) was 16.4 µM (inactive), the GI50 (SK-MEL-5) was 4.28 µM (inactive) and the GI50 (U-251) was 11.2 µM (inactive). The GI50 (SK-MEL-28) was 4.38 µM (inactive) and the GI50 (DMS-273) was 11.1 µM (inactive).

From ChEMBL document CHEMBL1201862, “PubChem BioAssay data set” (2004)
